system: Treponema isolate; experiment: Antimicrobial susceptibility test (MICROSCAN plates) of a patient's Treponema isolate; assay type: cell-based; details: Treponema infected patient's isolate; MICROSCAN plates, 35° C., 16-20 hours
Protocol: For susceptibility testing, the organisms harvested could be assayed using any suitable susceptibility assay (See, Example 7). In some embodiments of the present invention, MICROSCAN antibiotic susceptibility plates were inoculated and incubated. Following incubations, plates were scanned for growth and respective sensitivity reaction. […] For the results to be considered reliable, the no growth of organisms was accepted in the negative control well, while the positive control well had to have sufficient growth to be read. In some embodiments of the present invention, to confirm the presence or absence of growing spirochetes in the growth well, aliquots from the growth well were reinoculated with fresh growth media and after an incubation time (e.g., 7-10 days) the presence of the organisms was confirmed (e.g., by phase contrast microscopy or direct fluorescent antibody staining).
(§1) This example describes the preparation of a pellet used for antimicrobial susceptibility testing of a culture sample. The procedure begins with a culture (e.g., prepared in the manner described in Example 2), where serum from a patient is inoculated in GSI-1 media and allowed to grow. In order to form pellet, an aliquot of this culture sample is placed in a microcentrifuge tube along with 10% SDS solution, and centrifuged at 14,000 g to disrupt the spirochetes and maximize the number of available eptiopic sites. The disrupted spirochetes were then cultured in an alternative growth medium made up of one part GSI-1 medium, one part 6.5% lactalbumin hydrolysate, one part 2% brain heart infusion, one part 10% pluronic fluid, and one part of the isolated (disrupted) spirochetes. This inoculated alternative growth medium was then allowed to incubate in the closed micro centrifuge tube until a distinctive pellet was observed (typically 7-14 days).
This example describes an antimicrobial susceptibility test performed for a human patient. The patient had previously been testing using GSI-1 medium (e.g., as described in Example 2) for the presence of any spirochetes. […] This culture sample was then transferred to a microcentrifuge tube, and a pellet for antimicrobial susceptibility testing was prepared as described in Example 6.
(§2) Following the observation of pellet formation, the tube was vortexed and incubated at 35° C. until a MacFarlane standard of between 8 to 12% turbidity was achieved. MICROSCAN antibiotic susceptibility microtiter plates were then inoculated with (e.g., 110 μl of) inoculum and allowed to incubate at 35° C. for 16-20 hours. The microtiter plates were then scanned for growth and respective sensitivity reaction (both the control well and the growth well). Table 2 below lists the various antimicrobials tested with this sample and whether growth of the organism was inhibited (susceptible) or whether the growth of the organism was not inhibited (resistant).

Molecule | RESULT (antibiotic susceptibility)
Ticarcillin/Clavulanate | Susceptible
NC[C@H]1O[C@H](O[C@H]2[C@H](O)[C@@H](O[C@H]3O[C@H](CO)[C@@H](O)[C@H](N)[C@H]3O)[C@H](N)C[C@@H]2N)[C@H](N)C[C@@H]1O [Tobramycin] | Intermediate

system: E. coli; experiment: Antibiotic susceptibility test (MICROSCAN or disc diffusion), control organism E. coli; assay type: cell-based; details: total isolates 1

Molecule | Antibiotic Susceptibility Test Results, E. coli
CO/N=C(\C(=O)N[C@@H]1C(=O)N2C(C(=O)[O-])=C(C[N+]3(C)CCCC3)CS[C@H]12)c1csc(N)n1 [Cefepime] | 100%
CC(C)(O/N=C(\C(=O)N[C@@H]1C(=O)N2C(C(=O)[O-])=C(C[n+]3ccccc3)CS[C@H]12)c1csc(N)n1)C(=O)O [Ceftazidime] | 100%
Ticarcillin/Clavulanate | 100%
NC[C@H]1O[C@H](O[C@H]2[C@H](O)[C@@H](O[C@H]3O[C@H](CO)[C@@H](O)[C@H](N)[C@H]3O)[C@H](N)C[C@@H]2N)[C@H](N)C[C@@H]1O [Tobramycin] | 100%

system: Tatumella; experiment: Antibiotic susceptibility test (MICROSCAN or disc diffusion), control organism Tatumella; assay type: cell-based; details: total isolates 2
Excerpt: as §1, §2
(§3) This Example describes the results for susceptibility tests that were performed on a large number of patient samples positive for either Borrelia or Leptospira. […] The results presented in Table 3 reveal the varied response of different types of spirochetes to different antibiotics.

Molecule | Antibiotic Susceptibility Test Results, Tatumella
CO/N=C(\C(=O)N[C@@H]1C(=O)N2C(C(=O)[O-])=C(C[N+]3(C)CCCC3)CS[C@H]12)c1csc(N)n1 [Cefepime] | 0%
CC(C)(O/N=C(\C(=O)N[C@@H]1C(=O)N2C(C(=O)[O-])=C(C[n+]3ccccc3)CS[C@H]12)c1csc(N)n1)C(=O)O [Ceftazidime] | 0%
Ticarcillin/Clavulanate | 100%
NC[C@H]1O[C@H](O[C@H]2[C@H](O)[C@@H](O[C@H]3O[C@H](CO)[C@@H](O)[C@H](N)[C@H]3O)[C@H](N)C[C@@H]2N)[C@H](N)C[C@@H]1O [Tobramycin] | 100%

system: Y. entero gp.; experiment: Antibiotic susceptibility test (MICROSCAN or disc diffusion), control organism Y. entero gp.; assay type: cell-based; details: total isolates 1

Molecule | Antibiotic Susceptibility Test Results, Y. entero gp.
CO/N=C(\C(=O)N[C@@H]1C(=O)N2C(C(=O)[O-])=C(C[N+]3(C)CCCC3)CS[C@H]12)c1csc(N)n1 [Cefepime] | 100%
CC(C)(O/N=C(\C(=O)N[C@@H]1C(=O)N2C(C(=O)[O-])=C(C[n+]3ccccc3)CS[C@H]12)c1csc(N)n1)C(=O)O [Ceftazidime] | 100%
Ticarcillin/Clavulanate | 100%
NC[C@H]1O[C@H](O[C@H]2[C@H](O)[C@@H](O[C@H]3O[C@H](CO)[C@@H](O)[C@H](N)[C@H]3O)[C@H](N)C[C@@H]2N)[C@H](N)C[C@@H]1O [Tobramycin] | 100%

system: Borrelia; experiment: Antibiotic susceptibility test (MICROSCAN or disc diffusion) of patient samples positive for Borrelia; assay type: cell-based; details: total isolates 519
Excerpt: as §1, §2, §3

Molecule | Antibiotic Susceptibility Test Results, Borrelia
CO/N=C(\C(=O)N[C@@H]1C(=O)N2C(C(=O)[O-])=C(C[N+]3(C)CCCC3)CS[C@H]12)c1csc(N)n1 [Cefepime] | 49%
CC(C)(O/N=C(\C(=O)N[C@@H]1C(=O)N2C(C(=O)[O-])=C(C[n+]3ccccc3)CS[C@H]12)c1csc(N)n1)C(=O)O [Ceftazidime] | 36%
Ticarcillin/Clavulanate | 79%
NC[C@H]1O[C@H](O[C@H]2[C@H](O)[C@@H](O[C@H]3O[C@H](CO)[C@@H](O)[C@H](N)[C@H]3O)[C@H](N)C[C@@H]2N)[C@H](N)C[C@@H]1O [Tobramycin] | 81%

system: Leptospira; experiment: Antibiotic susceptibility test (MICROSCAN or disc diffusion) of patient samples positive for Leptospira; assay type: cell-based; details: total isolates 276
Excerpt: as §1, §2, §3

Molecule | Antibiotic Susceptibility Test Results, Leptospira
CO/N=C(\C(=O)N[C@@H]1C(=O)N2C(C(=O)[O-])=C(C[N+]3(C)CCCC3)CS[C@H]12)c1csc(N)n1 [Cefepime] | 54%
CC(C)(O/N=C(\C(=O)N[C@@H]1C(=O)N2C(C(=O)[O-])=C(C[n+]3ccccc3)CS[C@H]12)c1csc(N)n1)C(=O)O [Ceftazidime] | 41%
Ticarcillin/Clavulanate | 75%
NC[C@H]1O[C@H](O[C@H]2[C@H](O)[C@@H](O[C@H]3O[C@H](CO)[C@@H](O)[C@H](N)[C@H]3O)[C@H](N)C[C@@H]2N)[C@H](N)C[C@@H]1O [Tobramycin] | 84%

system: A. lwoffii; experiment: Antibiotic susceptibility test (MICROSCAN or disc diffusion), control organism A. lwoffii; assay type: cell-based; details: total isolates 1

Molecule | Antibiotic Susceptibility Test Results, A. lwoffii
CO/N=C(\C(=O)N[C@@H]1C(=O)N2C(C(=O)[O-])=C(C[N+]3(C)CCCC3)CS[C@H]12)c1csc(N)n1 [Cefepime] | 100%
CC(C)(O/N=C(\C(=O)N[C@@H]1C(=O)N2C(C(=O)[O-])=C(C[n+]3ccccc3)CS[C@H]12)c1csc(N)n1)C(=O)O [Ceftazidime] | 100%
Ticarcillin/Clavulanate | 100%
NC[C@H]1O[C@H](O[C@H]2[C@H](O)[C@@H](O[C@H]3O[C@H](CO)[C@@H](O)[C@H](N)[C@H]3O)[C@H](N)C[C@@H]2N)[C@H](N)C[C@@H]1O [Tobramycin] | 100%

system: Pseudomonas; experiment: Antibiotic susceptibility test (MICROSCAN or disc diffusion), control organism Pseudomonas; assay type: cell-based; details: total isolates 1

Molecule | Antibiotic Susceptibility Test Results, Pseudomonas
CO/N=C(\C(=O)N[C@@H]1C(=O)N2C(C(=O)[O-])=C(C[N+]3(C)CCCC3)CS[C@H]12)c1csc(N)n1 [Cefepime] | 100%
CC(C)(O/N=C(\C(=O)N[C@@H]1C(=O)N2C(C(=O)[O-])=C(C[n+]3ccccc3)CS[C@H]12)c1csc(N)n1)C(=O)O [Ceftazidime] | 100%
Ticarcillin/Clavulanate | 100%
NC[C@H]1O[C@H](O[C@H]2[C@H](O)[C@@H](O[C@H]3O[C@H](CO)[C@@H](O)[C@H](N)[C@H]3O)[C@H](N)C[C@@H]2N)[C@H](N)C[C@@H]1O [Tobramycin] | 100%

system: Leptospira; experiment: Susceptibility testing of Leptospira isolated from a patient with symptoms of multiple sclerosis; assay type: cell-based; details: Leptospira culture from serum of multiple sclerosis patient
Protocol: This example describes the preparation of a pellet used for antimicrobial susceptibility testing of a culture sample. […] In order to form pellet, an aliquot of this culture sample is placed in a microcentrifuge tube along with 10% SDS solution, and centrifuged at 14,000 g to disrupt the spirochetes and maximize the number of available eptiopic sites. […] This inoculated alternative growth medium was then allowed to incubate in the closed micro centrifuge tube until a distinctive pellet was observed (typically 7-14 days).
MICROSCAN antibiotic susceptibility microtiter plates were then inoculated with (e.g., 110 μl of) inoculum and allowed to incubate at 35° C. for 16-20 hours. The microtiter plates were then scanned for growth and respective sensitivity reaction (both the control well and the growth well).

Molecule | Antibiotic Susceptibility Results, SERUM
CC(C)(O/N=C(\C(=O)N[C@@H]1C(=O)N2C(C(=O)[O-])=C(C[n+]3ccccc3)CS[C@H]12)c1csc(N)n1)C(=O)O [Ceftazidime] | Resistant
Ticarcillin/Clavulanate | Resistant
NC[C@H]1O[C@H](O[C@H]2[C@H](O)[C@@H](O[C@H]3O[C@H](CO)[C@@H](O)[C@H](N)[C@H]3O)[C@H](N)C[C@@H]2N)[C@H](N)C[C@@H]1O [Tobramycin] | Resistant

same assay, conditions: Leptospira culture from urine of multiple sclerosis patient

Molecule | Antibiotic Susceptibility Results, URINE
CC(C)(O/N=C(\C(=O)N[C@@H]1C(=O)N2C(C(=O)[O-])=C(C[n+]3ccccc3)CS[C@H]12)c1csc(N)n1)C(=O)O [Ceftazidime] | Resistant
Ticarcillin/Clavulanate | Resistant
NC[C@H]1O[C@H](O[C@H]2[C@H](O)[C@@H](O[C@H]3O[C@H](CO)[C@@H](O)[C@H](N)[C@H]3O)[C@H](N)C[C@@H]2N)[C@H](N)C[C@@H]1O [Tobramycin] | Resistant

system: Leptospira; experiment: Susceptibility testing of Leptospira isolated from a patient with symptoms of rheumatoid arthritis; assay type: cell-based; details: Leptospira culture from serum of rheumatoid arthritis patient
Excerpt: as §1
Following the observation of pellet formation, the tube was vortexed and incubated at 35° C. until a MacFarlane standard of between 8 to 12% turbidity was achieved. MICROSCAN antibiotic susceptibility microtiter plates were then inoculated with (e.g., 110 μl of) inoculum and allowed to incubate at 35° C. for 16-20 hours. The microtiter plates were then scanned for growth and respective sensitivity reaction (both the control well and the growth well).
This Example describes the diagnosis and treatment of a human patient with symptoms of rheumatoid arthritis. In particular, serum and urine samples from this patient were initially cultured on GSI-1 (e.g., as described in Example 2), and screened for the presence of spirochetes (e.g., as described in Example 3). […] These cultures were then used to produce pellets for antimicrobial susceptibility testing (e.g., as described in Example 6). The antimicrobial susceptibility tests were then carried out on each sample (e.g., as described in Example 7) with the antimicrobials listed below in Table 5.

Molecule | Antibiotic Susceptibility Results, SERUM
CC(C)(O/N=C(\C(=O)N[C@@H]1C(=O)N2C(C(=O)[O-])=C(C[n+]3ccccc3)CS[C@H]12)c1csc(N)n1)C(=O)O [Ceftazidime] | Resistant
Ticarcillin/Clavulanate | Resistant
NC[C@H]1O[C@H](O[C@H]2[C@H](O)[C@@H](O[C@H]3O[C@H](CO)[C@@H](O)[C@H](N)[C@H]3O)[C@H](N)C[C@@H]2N)[C@H](N)C[C@@H]1O [Tobramycin] | Resistant

same assay, conditions: Leptospira culture from urine of rheumatoid arthritis patient

Molecule | Antibiotic Susceptibility Results, URINE
CC(C)(O/N=C(\C(=O)N[C@@H]1C(=O)N2C(C(=O)[O-])=C(C[n+]3ccccc3)CS[C@H]12)c1csc(N)n1)C(=O)O [Ceftazidime] | Resistant
Ticarcillin/Clavulanate | Resistant
NC[C@H]1O[C@H](O[C@H]2[C@H](O)[C@@H](O[C@H]3O[C@H](CO)[C@@H](O)[C@H](N)[C@H]3O)[C@H](N)C[C@@H]2N)[C@H](N)C[C@@H]1O [Tobramycin] | Resistant

From patent US8617872B2, “Compositions for culturing spirochetes” (priority 2000, dated 2013)
